Among the data in PubChem BioAssay (NCI) are TGI values, retold here.

Usually TGI stands for the concentration giving total growth inhibition.

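In this assay, cells in 96-well plates receive the compound at five concentrations for 48 hours. Endpoints are linearly interpolated between the surrounding concentrations. At the TGI there is no net growth.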 Bounds are passed on as bounds.

Among the test systems are CCRF-CEM leukemia; EKVX NSCLC; HCT-116 colon; HCT-15 colon; MDA-MB-231 breast; MDA-N; MOLT-4 leukemia; NCI-H226 lung; NCI/ADR-RES ovarian; RPMI-8226 leukemia; SF-539 CNS; SK-MEL-2 melanoma; SK-MEL-28 melanoma; SNB-75 CNS; SR leukemia; T-47D breast; U251 CNS; UO-31 renal.
Assay in all cases: DTP human tumour cell line panel, 48 h

For `COC(=O)C1Cc2ccc3c(c2C1=O)CCCC3` (stereo not drawn), the TGI in the assay on CCRF-CEM leukemia, in the assay on EKVX NSCLC, in the assay on HCT-116 colon, in the assay with HCT-15 colon, with MDA-MB-231 breast and in the assay with MDA-N was above 100 µM in each case. The TGI with MOLT-4 leukemia, with NCI-H226 lung, with NCI/ADR-RES ovarian, in the assay with RPMI-8226 leukemia, in the assay on SF-539 CNS and in the assay with SK-MEL-2 melanoma was above 100 µM each time. The TGI was above 100 µM in the assay with SK-MEL-28 melanoma; above 100 µM in the assay on SNB-75 CNS; 82.9 µM in the assay with SR leukemia; above 100 µM in the assay on T-47D breast; above 100 µM in the assay on U251 CNS; above 100 µM in the assay with UO-31 renal.
`O=S1(=O)OCCOS(=O)(=O)C1Cc1cccc2ccccc12`: the TGI came out at 40.5 µM in the assay with CCRF-CEM leukemia; 80.3 µM with EKVX NSCLC; 48.3 µM in the assay on HCT-116 colon; 87.1 µM in the assay on HCT-15 colon; 46.6 µM in the assay on MDA-MB-231 breast; 59.3 µM in the assay on MDA-N. Further, the TGI is 65.9 µM with MOLT-4 leukemia; 36.3 µM in the assay with NCI-H226 lung; 54.8 µM in the assay on NCI/ADR-RES ovarian; 85.3 µM in the assay with RPMI-8226 leukemia; 39.9 µM in the assay on SF-539 CNS; above 100 µM with SK-MEL-2 melanoma. Moreover, the concentration for total growth inhibition (TGI) is 21.5 µM with SK-MEL-28 melanoma; above 100 µM in the assay on SNB-75 CNS; 64.9 µM in the assay on SR leukemia; above 100 µM in the assay with T-47D breast; 40.7 µM in the assay on U251 CNS; 48.8 µM with UO-31 renal.
As for `OC(c1ccc2c(c1)OCO2)c1ccc2c(c1)OCO2`, the TGI in the assay with CCRF-CEM leukemia, in the assay on EKVX NSCLC, with HCT-116 colon, with HCT-15 colon, in the assay on MDA-MB-231 breast and in the assay with MDA-N was above 100 µM in each case. The TGI with MOLT-4 leukemia, in the assay on NCI-H226 lung, with NCI/ADR-RES ovarian, in the assay on RPMI-8226 leukemia, in the assay on SF-539 CNS and with SK-MEL-2 melanoma was above 100 µM throughout. The TGI in the assay with SK-MEL-28 melanoma, in the assay on SNB-75 CNS, with SR leukemia, in the assay on T-47D breast, in the assay on U251 CNS and in the assay with UO-31 renal was above 100 µM throughout.
For `ON[C@H]1C[C@@H](n2cnc3c(NC4CC4)ncnc32)[C@H](O)[C@@H]1O`, the TGI with CCRF-CEM leukemia, in the assay with EKVX NSCLC, in the assay on HCT-116 colon, in the assay with HCT-15 colon, in the assay on MDA-MB-231 breast and in the assay with MDA-N was above 100 µM throughout. The TGI in the assay with MOLT-4 leukemia, in the assay with NCI-H226 lung, with NCI/ADR-RES ovarian, in the assay on RPMI-8226 leukemia, with SF-539 CNS and in the assay on SK-MEL-2 melanoma was above 100 µM throughout. Further, the TGI in the assay on SK-MEL-28 melanoma, in the assay on SNB-75 CNS, in the assay on SR leukemia, with T-47D breast, in the assay on U251 CNS and in the assay on UO-31 renal was above 100 µM in each case.
Take `COc1cc2c(cc1O)C1(Cc3ccc4c(c3C1=O)OCO4)N(C)CC2` (stereo not drawn): the TGI in the assay on CCRF-CEM leukemia, in the assay on EKVX NSCLC, in the assay on HCT-116 colon, in the assay on HCT-15 colon, in the assay on MDA-MB-231 breast and with MDA-N was above 100 µM each time. Also, the TGI in the assay on MOLT-4 leukemia, in the assay with NCI-H226 lung, with NCI/ADR-RES ovarian, in the assay on RPMI-8226 leukemia, in the assay with SF-539 CNS and with SK-MEL-2 melanoma was above 100 µM throughout. Moreover, the TGI in the assay on SK-MEL-28 melanoma, in the assay on SNB-75 CNS, in the assay with SR leukemia, in the assay on T-47D breast, with U251 CNS and in the assay on UO-31 renal was above 100 µM each time.
Regarding `COc1cccc(Nc2nc(N)nc(N)c2N)c1`, the TGI in the assay with CCRF-CEM leukemia is 52.7 µM; with EKVX NSCLC it was above 100 µM; with HCT-116 colon it was 53.8 µM; in the assay on HCT-15 colon it was above 100 µM; with MDA-MB-231 breast, 58.5 µM; in the assay on MDA-N, 36.8 µM. For the same compound, the TGI was 34.5 µM in the assay with MOLT-4 leukemia; above 100 µM with NCI-H226 lung; above 100 µM with NCI/ADR-RES ovarian; 68.3 µM in the assay with RPMI-8226 leukemia; above 100 µM in the assay on SF-539 CNS; above 100 µM in the assay with SK-MEL-2 melanoma. Also, the TGI in the assay on SK-MEL-28 melanoma was above 100 µM; in the assay with SNB-75 CNS, above 100 µM; in the assay on SR leukemia, 49.6 µM; with T-47D breast, above 100 µM; in the assay on U251 CNS, above 100 µM; with UO-31 renal it was above 100 µM.
For `O=c1[nH]nc(-c2ccccc2)n1/N=C/c1ccccc1Cl`, the TGI in the assay with CCRF-CEM leukemia, in the assay on EKVX NSCLC, in the assay on HCT-116 colon, in the assay with HCT-15 colon, in the assay with MDA-MB-231 breast and in the assay with MDA-N was above 100 µM throughout. In addition, the TGI is 56.5 µM in the assay on MOLT-4 leukemia; above 100 µM with NCI-H226 lung; 67.9 µM in the assay with NCI/ADR-RES ovarian; 94.4 µM with RPMI-8226 leukemia; above 100 µM in the assay with SF-539 CNS; 46.3 µM in the assay on SK-MEL-2 melanoma. Further, the TGI in the assay with SK-MEL-28 melanoma was above 100 µM; in the assay with SNB-75 CNS, above 100 µM; in the assay with SR leukemia, 85.6 µM; in the assay with T-47D breast, above 100 µM; in the assay with U251 CNS, above 100 µM; in the assay with UO-31 renal, above 100 µM.
`COc1ccc(C2=C(N)c3ncccc3C2=O)cc1`: the TGI in the assay on CCRF-CEM leukemia, with EKVX NSCLC, with HCT-116 colon, with HCT-15 colon, in the assay with MDA-MB-231 breast and with MDA-N was above 100 µM in each case. Further, the TGI in the assay on MOLT-4 leukemia, in the assay on NCI-H226 lung, with NCI/ADR-RES ovarian, in the assay with RPMI-8226 leukemia, in the assay on SF-539 CNS and with SK-MEL-2 melanoma was above 100 µM each time. Also, the TGI in the assay with SK-MEL-28 melanoma, with SNB-75 CNS, in the assay on SR leukemia, in the assay on T-47D breast, with U251 CNS and with UO-31 renal was above 100 µM in each case.
With `CCCCCCCCCCCCCCCCCCNc1nc(=O)n(C2CC(O)C(COP(=O)(O)OCC3OC(n4ccc(N)nc4=O)C(O)C3O)O2)cc1F` (stereo not drawn), the TGI with CCRF-CEM leukemia is above 100 µM; in the assay on EKVX NSCLC it was above 100 µM; in the assay with HCT-116 colon, above 100 µM; in the assay with HCT-15 colon, 38 µM; in the assay on MDA-MB-231 breast it was 72.5 µM; with MDA-N, above 100 µM. Besides, the TGI with MOLT-4 leukemia, with NCI-H226 lung, in the assay with NCI/ADR-RES ovarian, in the assay on RPMI-8226 leukemia, with SF-539 CNS and with SK-MEL-2 melanoma was above 100 µM in each case. Moreover, the TGI in the assay with SK-MEL-28 melanoma, in the assay with SNB-75 CNS, in the assay on SR leukemia, with T-47D breast, with U251 CNS and with UO-31 renal was above 100 µM throughout.
In the case of `Cc1ccnc2[nH]c(-c3ccc(F)cc3)cc(=O)c12`, the TGI with CCRF-CEM leukemia is above 100 µM; in the assay with EKVX NSCLC it was above 100 µM; in the assay on HCT-116 colon, above 100 µM; with HCT-15 colon, above 100 µM; in the assay with MDA-MB-231 breast, above 100 µM; with MDA-N, above 53.9 µM. Further, the TGI in the assay on MOLT-4 leukemia, in the assay with NCI-H226 lung, in the assay on NCI/ADR-RES ovarian, in the assay with RPMI-8226 leukemia, in the assay with SF-539 CNS and in the assay with SK-MEL-2 melanoma was above 100 µM in each case. Further, the TGI is above 100 µM with SK-MEL-28 melanoma; above 100 µM in the assay on SNB-75 CNS; 25.9 µM in the assay on SR leukemia; above 100 µM with T-47D breast; above 100 µM in the assay with U251 CNS; above 100 µM with UO-31 renal.
In the case of `C[N+](C)(C)CC(=O)N/N=C(\C(=O)NC1=C(Cl)C(=O)c2ccccc2C1=O)C(C#N)c1nc(-c2ccc([N+](=O)[O-])cc2)cs1` (stereo not drawn), the TGI came out at 49.5 µM with CCRF-CEM leukemia; 34.2 µM in the assay on EKVX NSCLC; 20.8 µM in the assay on HCT-116 colon; 18.8 µM in the assay on HCT-15 colon; 39.3 µM in the assay with MDA-MB-231 breast; 3.2 µM in the assay on MDA-N. Further, the TGI in the assay on MOLT-4 leukemia was 53.7 µM; with NCI-H226 lung it was 38.6 µM; in the assay with NCI/ADR-RES ovarian, above 57.5 µM; with RPMI-8226 leukemia it was 47 µM; with SF-539 CNS, 22.3 µM; with SK-MEL-2 melanoma, 30.9 µM. The concentration for total growth inhibition (TGI) was 17.6 µM with SK-MEL-28 melanoma; 19.9 µM in the assay with SNB-75 CNS; 52.5 µM with SR leukemia; 37.9 µM in the assay on T-47D breast; 26.4 µM in the assay on U251 CNS; 31 µM with UO-31 renal.
